Where only a bound is given, the exact number is not on record here.

Consider six molecules from article PMC6397705 (Molecular cancer therapeutics, 2019).

The subject of one series is HEK-293 cells. The series is described as follows: Western analysis of ribosomal S6. The conditions noted are these: wild-type HEK-293 cells, 0–2 μM, 3 hours. It is filed as cell-based, human.
In series [1] the target is T1, PP2AC (Bos taurus, UniProt P67774). Put plainly: Phosphopeptide. It is filed as biochemical, bovine.
The target in series [2] is T2, PPP5C (Homo sapiens, UniProt P53041). Put plainly: [32P]-phosphohistone phosphatase assay. It is filed as biochemical.
Another series can be described thus: in vitro. The class given is cell-based. The conditions noted are these: human, EC50, cytotoxicity in U-937 cells, 72 hours, n=16.
The target in series [3] is T2, PPP5C. The series is described as follows: Phosphopeptide. The class given is biochemical.
In series [4] the target is T1, PP2AC. Put plainly: [32P]-phosphohistone phosphatase assay. It is filed as biochemical, bovine.
Another series concerns PP2AC versus PPP5C. Put plainly: Selectivity over the three substrate assays. Particulars: with all three substrates. It is filed as biochemical.
For series [5], the target named is T1, PP2AC. The series is described as follows: DiFMUP-based phosphatase inhibition assay. It is filed as biochemical, bovine.
For the next series, the system named is PP2A. The conditions noted are these: cited from earlier work.
For series [6], the system named is PPP1C/PPP2AC/PPP5C/ PPP6C. The conditions noted are these: cited from earlier work.
The test system of the next series is solid tumor patients. The conditions noted are these: of 46 solid tumor patients, Phase I; cited from earlier work.

T1 sequence (P67774 whole entry): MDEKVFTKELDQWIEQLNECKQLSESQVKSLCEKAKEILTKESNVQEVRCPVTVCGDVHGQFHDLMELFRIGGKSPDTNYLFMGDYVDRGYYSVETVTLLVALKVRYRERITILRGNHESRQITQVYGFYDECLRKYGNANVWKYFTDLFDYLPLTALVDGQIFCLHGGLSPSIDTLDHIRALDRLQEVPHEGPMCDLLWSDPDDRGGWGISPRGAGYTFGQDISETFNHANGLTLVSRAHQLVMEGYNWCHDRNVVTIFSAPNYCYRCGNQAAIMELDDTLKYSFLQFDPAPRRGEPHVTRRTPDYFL
T2 sequence (P53041 whole entry): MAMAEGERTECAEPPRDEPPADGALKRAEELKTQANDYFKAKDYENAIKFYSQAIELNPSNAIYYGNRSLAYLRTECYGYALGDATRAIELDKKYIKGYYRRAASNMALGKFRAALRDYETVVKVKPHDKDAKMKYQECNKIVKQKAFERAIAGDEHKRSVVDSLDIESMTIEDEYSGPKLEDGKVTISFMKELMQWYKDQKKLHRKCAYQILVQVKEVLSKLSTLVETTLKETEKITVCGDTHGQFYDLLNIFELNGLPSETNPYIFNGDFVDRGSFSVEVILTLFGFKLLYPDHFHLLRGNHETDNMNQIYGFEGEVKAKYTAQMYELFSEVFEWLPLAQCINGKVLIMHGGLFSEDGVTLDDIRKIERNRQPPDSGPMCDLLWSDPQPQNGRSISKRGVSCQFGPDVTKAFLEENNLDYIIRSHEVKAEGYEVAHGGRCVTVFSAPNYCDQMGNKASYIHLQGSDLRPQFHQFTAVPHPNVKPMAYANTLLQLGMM

As to `CN1CCN(C(=O)C2C3CCC(O3)C2C(=O)O)CC1` (centres unmarked) [LB-100, 3-(4-methylpiperazine-1-carbonyl)-7-oxabicyclo[2.2.1]heptane-2-carboxylic acid], the “phosphorylation of ribosomal protein S6 (Ser235/236)” value in the series on HEK-293 cells is “induced in the wild-type HEK-293 cells by LB-100 in a dose-dependent manner”. Further, the IC50 was found to be 1.27 µM against PP2AC [1]; 4.9 µM at PPP5C [2]; 6.64 µM against PPP5C [3]; 0.64 µM against PP2AC [4]; 0.39 µM on PP2AC [5]. Besides, the EC50 in the series “in vitro” (LB-100 alone) is 11.7 µM; in the series “in vitro” (LB-100 and 500 nM dexamethasone), 5.48 µM. In addition, the “selectivity for PP2AC versus PPP5C” value in the series with PP2AC versus PPP5C is 4–7 fold.
On to “4-(3-carboxy-7-oxa-bicyclo [2.2.1] heptane-2-carbonyl)piperazine-1-carboxylic acid tert- butyl ester [LB-102]”, for which the “selectivity for PP2A” value in the series on PP2A is on record as > 10,000 fold.
For the molecule `C[C@@]12C(=O)OC(=O)[C@]1(C)[C@H]1CC[C@@H]2O1` [cantharidin], the “affinity for ser/thr phosphatases 1, 2A, 5, and 6” value in series [6] (catalytic inhibitor) is on record as “submicromolar to low micromolar”.
As to `C[C@@](O)(/C=C/[C@H]1CC=CC(=O)O1)[C@@H](C[C@@H](O)\C=C/C=C\C=C\CO)OP(=O)(O)O` [fostriecin], the “disease stability, number of patients” value in the series on solid tumor patients is recorded as 16.
Take Microcystin: the IC50 in [6] was under 0.002 µM.
In the case of nodularin, the 50% inhibitory concentration (IC50) in series [6] was under 0.002 µM.
